# Assay results as given in PubChem BioAssay (NCI).
# Where “and” joins values, the source holds several entries; their conditions need not be identical. Equal entries are not always repeated.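 Cultured in 96-well plates, cells were exposed to test compound for 48 hours across five concentrations. Here, GI50 denotes the concentration required for 50% inhibition of growth. TGI marks complete inhibition of growth.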
# Assays:
# Experiment in all cases: NCI anticancer screen, dose series, 48 h
# BT-549 breast = test system: BT-549 breast
# HL-60(TB) leukemia = test system: HL-60(TB) leukemia
# MDA-MB-435 = test system: MDA-MB-435
# T-47D breast = test system: T-47D breast
# MCF7 breast = test system: MCF7 breast
# HS 578T breast = test system: HS 578T breast
# DMS 114 small cell lung = test system: DMS 114 small cell lung
# DLD-1 colon = test system: DLD-1 colon
# LXFL 529 NSCLC = test system: LXFL 529 NSCLC
# XF 498 CNS = test system: XF 498 CNS
SMILES,GI50 (BT-549 breast),TGI (BT-549 breast),GI50 (HL-60(TB) leukemia),TGI (HL-60(TB) leukemia),GI50 (MDA-MB-435),TGI (MDA-MB-435),GI50 (T-47D breast),TGI (T-47D breast),GI50 (MCF7 breast),TGI (MCF7 breast),GI50 (HS 578T breast),TGI (HS 578T breast),TGI (DMS 114 small cell lung) [µM],TGI (DLD-1 colon) [µM],TGI (LXFL 529 NSCLC) [µM],TGI (XF 498 CNS) [µM],GI50 (DMS 114 small cell lung) [µM],GI50 (DLD-1 colon) [µM],GI50 (LXFL 529 NSCLC) [µM],GI50 (XF 498 CNS) [µM]
NS(=O)(=O)OC[C@H]1O[C@@H](n2cnc3c(N[C@H]4CCc5ccccc54)ncnc32)[C@H](O)[C@@H]1O,0.0298 µM,0.081 µM,0.0482 µM,1.44 µM,0.114 µM,0.351 µM,0.156 µM,1.41 µM,0.0736 µM,> 100 µM,0.432 µM,6.93 µM,,,,,,,,
CCCCCc1c(C)[nH]c(/C=C2\N=C(c3ccc[nH]3)C=C2Oc2ccc(OC)cc2)c1C,0.353 µM and 0.246 µM,2.6 µM and 2.36 µM,0.209 µM,0.924 µM,0.149 µM and 0.0331 µM,0.387 µM and 0.153 µM,0.193 µM and 0.0295 µM,0.968 µM and 1.24 µM,0.0667 µM and 0.0358 µM,1.21 µM and 1.15 µM,0.15 µM and 0.0228 µM,0.701 µM and 0.139 µM,,,,,,,,
COC(=O)c1nc(N)[nH]c(=O)c1-c1ccc(Cl)cc1,,,,> 100 µM,,,,,,,,,> 100,> 100,> 100,> 100,,,,
COc1ccc(/C=N\N2C(=O)Cc3ccccc32)cc1,,,,> 100 µM,,,,,,,,,,> 100,,83.9,,,,
COc1cc2c3c(c1OC)C1(C=CC(=O)C=C1)CC3N(C(=O)OC(C)(C)C(Cl)(Cl)Cl)CC2 (stereo not drawn),,,,8.26 µM,,,,,,,,,22,23.5,82.9,23.9,,,,
O=C1CCc2cc([N+](=O)[O-])ccc2O1,,> 100 µM,,> 100 µM,,> 100 µM,,> 100 µM,,> 100 µM,,> 100 µM,,,,,,,,
COC1=C(C(=O)OC(C)(C)C)C23CCCCC2(C(C(=O)OC(C)(C)C)=C(OC)C3C(=O)OC(C)(C)C)C1C(=O)OC(C)(C)C (stereo not drawn),,,,63.1 µM,,,,,,,,,> 100,> 100,> 100,> 100,,,,
COC(=O)CC[C@@H](NC(=O)C(C)NC(=O)COC1C(O)C(COC(=O)CCCCCCCCCCNC(=O)c2ccc([N+](=O)[O-])c3[nH]c4cc(Br)ccc4c(=O)c23)OC(OCc2ccccc2)C1NC(C)=O)C(N)=O (stereo partly drawn),,,,51.4 µM,,,,,,,,,> 100,> 100,66.3,> 100,,,,
Oc1ccc(Br)cc1CN1CCN(Cc2ccc(Cl)cc2)CC1,38.2 µM,> 100 µM,22.8 µM,66.5 µM,20.8 µM,90.4 µM,8.9 µM,> 100 µM,18.4 µM,94.3 µM,28.6 µM,> 100 µM,,,,,,,,
COc1ccc(CNCCN2C(=O)c3ccc4c5c(ccc(c35)C2=O)C(=O)N(CCNCc2ccc(OC)cc2)C4=O)cc1,0.35 µM,1.03 µM,0.311 µM,0.858 µM,0.189 µM,0.375 µM,0.306 µM,1.42 µM,0.181 µM,0.533 µM,1.1 µM,4.25 µM,,,,,,,,
CN1CCN(c2nc(C3=C(c4c[nH]c5ccccc45)C(=O)NC3=O)c3ccccc3n2)CC1,8.91 µM and 14.3 µM,20.8 µM and 29.3 µM,12.3 µM and 15.1 µM,36.6 µM and 35.6 µM,9.08 µM and 12.4 µM,19.4 µM and 26.1 µM,15.6 µM and 26.3 µM,53.4 µM and 82.4 µM,10.1 µM and 16.6 µM,27.9 µM and 40 µM,9.01 µM and 14.6 µM,27 µM and 38.3 µM,,,,,,,,
O=C(Nc1ccc(Cl)cc1Cl)c1c/c(=N\O)c2ccc(O)cc2o1,,,,> 100 µM,,,,,,,,,> 100,> 100,> 100,,,,,
CC1=NN(C(=O)CC(=O)Nc2ccccc2)C(=O)C1N=Nc1ccc(S(N)(=O)=O)cc1 (stereo not drawn),,,,> 100 µM,,,,,,,,,> 100,> 100,> 100,> 100,,,,
Cc1cccc2c1NC(c1c(C)[nH]c3ccccc13)C2 (stereo not drawn),,,,> 100 µM,,,,,,,,,> 100,> 100,> 100,> 100,,,,
COc1ccc(-n2cc(-c3ccc(Cl)cc3)[nH]c2=S)cc1Cl,20.5 µM,55 µM,> 100 µM,> 100 µM,> 100 µM,> 100 µM,18.4 µM,> 100 µM,34.3 µM,> 100 µM,23.8 µM,56.6 µM,,,,,,,,
COc1cc(C2C3=C(COC3=O)N(CCO)c3cc4c(cc32)OCCO4)cc(OC)c1O (stereo not drawn),5.71 µM,> 27.8 µM,1.52 µM,> 13.5 µM,0.331 µM,1.71 µM,3.38 µM,> 50 µM,0.957 µM,> 50 µM,1.14 µM,> 50 µM,,,,,,,,
CC([C@H]1CCC2C3CCC4C(=O)C(NC=O)=CC[C@]4(C)C3CC[C@@]21C)N(C)C (stereo partly drawn),3.94 µM,21.3 µM,1.86 µM,4.95 µM,2.81 µM,> 29.9 µM,1.73 µM,6.57 µM,2.43 µM,14.1 µM,4.6 µM,20.8 µM,,,,,,,,
CCC(C)CNC1=C(NC(C)=O)C(=O)c2ccccc2C1=O (stereo not drawn),,,,> 100 µM,,,,,,,,,,> 100,> 100,> 100,,,,
COc1ccc2c(c1)C(CCN)C(=O)N2 (stereo not drawn),,,,> 100 µM,,,,,,,,,> 100,> 100,> 100,> 100,,,,
O=C(O)CSc1ccn(Cc2ccccc2)c1,,> 100 µM,,> 100 µM,,> 100 µM,,> 100 µM,,> 100 µM,,> 100 µM,,,,,,,,
Nc1ccc(Cl)cc1.Nc1ccc(Cl)cc1.Nc1ccc(Cl)cc1.O=C([O-])C(=O)[O-].O=C([O-])C(=O)[O-].[H+].[Ru+5],,,0.104 µM,> 87.8 µM,,,,,,,,,,> 100,> 100,> 100,0.23,> 43.5,< 0.0272,> 87.2
